Reference: publication PMC13594947 (Journal of Molecular and Cellular Cardiology Plus, 2026)
Like-named read-outs stand apart in the source and are kept apart here.

Assays:
PRMT5 = test: Immunoblot of global SDMA in neonatal rat ventricular cardiomyocytes; type: cell-based; conditions: concentrations up to 50 μM
Myh7 and Nppa expression = test: PRMT5i combined with ORAB/sham surgery: quantitative PCR of Myh7 and Nppa in left-ventricular tissue; type: in vivo; conditions: mice
Description: (§1) The surgical procedure was essentially performed as previously described^20. In brief, animals were narcotized using Isoflurane. The thorax was opened and a nitrile O-ring (inner diameter 0.020 inch) was closed around the aorta ascendens in order to enhance pressure load of the left ventricle. Perisurgically and for the following days, analgesia was maintained via buprenorphine.
1µg of RNA was reverse transcribed (PrimaDIRECT 2x PCR Master Mix Kit (Steinbrenner)) and cDNA was subjected to quantitative PCR on a LightCycler480 (Roche) using SYBR Green Master Mix (Thermo Fisher).
mmMyh7: • For: 5’ AGCATTCTCCTGCTGTTTCCT 3’ • Rev: 5’ CCAGGCCTGTAGAAGAGCTG 3’
mmNppa: • For: 5’ ATTGACAGGATTGGAGCCCAGAGT 3’ • Rev: 5’ TGACACACCACAAGGGCTTAGGAT 3’
mmGapdh: • For: 5’ GGTGGACCTCATGGCCTACA 3’ • Rev: 5’ CTCTCTTGCTCAGTGTCCTTGCT 3’

HEK293 cells = test: PRMT5i-associated cytotoxicity, CellTiter 96 Cell Proliferation Assay; type: cell-based; conditions: dosage escalation beyond 10 μM, 48 h exposure
Description: HEK293 cells (ATCC) were cultured in DMEM (PanBiotech) supplemented with 10% FCS (Thermo Fisher) and 1% penicillin-streptomycin (Thermo Fisher) and incubated at standard conditions. Cells between passage 5 and 18 were used for experiments. Neonatal rat ventricular myocytes (NRVMs) were isolated from 24h-to-72h old rats using the Neonatal Heart Dissociation Kit (Miltenyi Biotec) according to manufacturer’s recommendations, cultured in DMEM supplemented with 10% FCS and 1% penicillin-streptomycin and incubated at standard conditions. EPZ015666 and GSK3326595 (MedChemExpress) were dissolved in DMSO and added into the culture medium at indicated dosages. For protein analysis, cells were treated for 96 h including a medium exchange after 48 h. Control cells were treated with DMSO accordingly. Single values in the analysis represent individually treated wells (technical replicates) and experiments were reproduced at least three times using independent cell passages or preparations. […] The treatment was performed in individual wells and absorbance at 570 nm was recorded on an EnSight Plate reader (PerkinElmer).

murine heart [1] = test: Short-term application (5 consecutive days) in mice: transthoracic echocardiography, survival; type: in vivo
Description: (§2) All animal studies were approved by and conducted in accordance with the German Animal Welfare Act and approved by the Animal Experiment Review Board of the Regierungspräsidium Karlsruhe, Germany. The study refers to the application G210-19. C57BL/6N mice were purchased from Charles River at the age of 12 weeks. Male and female mice were included in an equal ratio.
(§3) The compound (Medchemexpress) was dissolved in 5% DMSO, 40% PEG300, 5% Tween-80 in isotonic saline solution and administered either via oral gavage or by injection into the tail vein. Control animals received the same solution without compound.
(§4) Cardiac performance was determined by transthoracic echocardiography. Measurements on conscious mice were performed using a Vevo® 2100 system with a 55 MHz transducer (Visualsonics). Ejection fraction (EF) was averaged over at least 5 contraction cycles. The experimenter was blinded for genotype and treatment.

patients = conditions: ref [12], [18]; cited from earlier work
murine heart [2] = test: Long-term application in mice: Masson Trichrome histology (fibrosis); type: in vivo; conditions: 8 weeks
Description: (§5) Heart cross-sections (2-chamber view) were fixed in Roti Histofix (Roth, P087.5) and dehydrated in ethanol. After paraffin embedding, slices of 6µm thickness were cut and used for Hematoxylin/Eosin and Masson’s trichrome staining. Imaging was performed on a Zeiss Axioscan 7. For analysis, 10 snapshots of fixed dimension were taken per animal and the percentage of fibrotic tissue was assessed based on color threshold using ImageJ.

[3] = Single-dose pharmacokinetics in mice: plasma levels by UPLC-MS/MS; type: in vivo
Description: (§6) All animal studies were approved by and conducted in accordance with the German Animal Welfare Act and approved by the Animal Experiment Review Board of the Regierungspräsidium Karlsruhe, Germany. The study refers to the application […]-19. C57BL/6N mice were purchased from Charles River at the age of 12 weeks. Male and female mice were included in an equal ratio. The compound (Medchemexpress) was dissolved in 5% DMSO, 40% PEG300, 5% Tween-80 in isotonic saline solution and administered either via oral gavage or by injection into the tail vein. Control animals received the same solution without compound. […] Tissue samples were homogenized in water using a Bead Ruptor 4 homogenizer (Omni International Inc, USA) for at least 120 s with ceramic beads. After protein precipitation with acetonitrile, plasma and tissue sample extracts were measured using an UPLC-MS/MS (Waters, USA) setup including an Acquity UPLC I-Class® coupled with a Xevo TQ-S triple stage quadrupole mass spectrometer (Waters), which featured a heated ESI source (Z-Spray in the positive MRM mode). Gradient chromatography was conducted using an ACQUITY UPLC BEH C18 column (130 Å, 1.7 μm, 2.1 mm × 50 mm; Waters, USA) consisting of eluent A (95/5 H2O/ACN with 0.1% formic acid) and eluent B (ACN with 0.1% formic acid).

murine heart [4] = test: PRMT5i combined with ORAB/sham surgery: histology (fibrosis); type: in vivo; conditions: mice
Text: The surgical procedure was essentially performed as previously described^20. In brief, animals were narcotized using Isoflurane. The thorax was opened and a nitrile O-ring (inner diameter 0.020 inch) was closed around the aorta ascendens in order to enhance pressure load of the left ventricle. Perisurgically and for the following days, analgesia was maintained via buprenorphine. Heart cross-sections (2-chamber view) were fixed in Roti Histofix (Roth, P087.5) and dehydrated in ethanol. After paraffin embedding, slices of 6µm thickness were cut and used for Hematoxylin/Eosin and Masson’s trichrome staining. Imaging was performed on a Zeiss Axioscan 7. For analysis, 10 snapshots of fixed dimension were taken per animal and the percentage of fibrotic tissue was assessed based on color threshold using ImageJ.

hematopoiesis [5] = test: Long-term application in mice: blood cell parameters; type: in vivo; conditions: 8 weeks
Description: Hematological parameters were analyzed using an automated hematology analyzer ([…] ABC, ABX Diagnostics, France) according to manufacturer's instructions. Whole blood samples were collected into EDTA-coated tubes to prevent coagulation. The following parameters were determined: red blood cell count (RBC), white blood cell count (WBC), hemoglobin concentration (HGB), mean corpuscular volume (MCV), mean corpuscular hemoglobin (MCH), platelet count (PLT), and differential leukocyte counts.

hematopoiesis [6] = test: PRMT5i combined with ORAB/sham surgery: blood cell parameters; type: in vivo; conditions: mice, chronic PRMT5i with ORAB/sham
Description: The surgical procedure was essentially performed as previously described^20. In brief, animals were narcotized using Isoflurane. The thorax was opened and a nitrile O-ring (inner diameter 0.020 inch) was closed around the aorta ascendens in order to enhance pressure load of the left ventricle. Perisurgically and for the following days, analgesia was maintained via buprenorphine. Hematological parameters were analyzed using an automated hematology analyzer ([…] ABC, ABX Diagnostics, France) according to manufacturer's instructions. Whole blood samples were collected into EDTA-coated tubes to prevent coagulation. The following parameters were determined: red blood cell count (RBC), white blood cell count (WBC), hemoglobin concentration (HGB), mean corpuscular volume (MCV), mean corpuscular hemoglobin (MCH), platelet count (PLT), and differential leukocyte counts.

mice [7] = test: Long-term application in mice: body weight, mortality, heart and lung weight to tibia length; type: in vivo; conditions: 8 weeks
Description: as §2, §3

[8] = Single-dose pharmacokinetics in mice: tissue levels (heart, liver, kidney, skeletal muscle) by UPLC-MS/MS; type: in vivo; conditions: for concentration at 1 h: po, 100 mg/kg, oral 100 mg/kg, peak (1 h)
Description: as §6

murine heart [9] = test: Short-term application in mice: histology of cardiac cross-sections; type: in vivo; conditions: oral once or twice a day, 5 consecutive days
Description: as §5, with “The compound (Medchemexpress) was dissolved in 5% DMSO, 40% PEG300, 5% Tween-80 in isotonic saline solution and administered either via oral gavage or by injection into the tail vein. Control animals received the same solution without compound. Heart” for “Heart”

mice [10] = test: PRMT5i combined with ORAB/sham surgery: mortality; type: in vivo; conditions: PRMT5i-treated mice undergoing ORAB
Description: as §3, §1

murine heart [11] = test: PRMT5i combined with O-ring aortic banding (ORAB)/sham surgery: echocardiography; type: in vivo; conditions: mice, 56 days combined with ORAB/sham surgery
Description: The compound (Medchemexpress) was dissolved in 5% DMSO, 40% PEG300, 5% Tween-80 in isotonic saline solution and administered either via oral gavage or by injection into the tail vein. Control animals received the same solution without compound. Cardiac performance was determined by transthoracic echocardiography. Measurements on conscious mice were performed using a Vevo® 2100 system with a 55 MHz transducer (Visualsonics). Ejection fraction (EF) was averaged over at least 5 contraction cycles. The experimenter was blinded for genotype and treatment.

murine heart [12] = test: Long-term application (8 weeks) in mice: transthoracic echocardiography; type: in vivo; conditions: over the course of 8 weeks
Description: as §2, §3, §4

O=C(NC[C@H](O)CN1CCc2ccccc2C1)c1cc(NC2COC2)ncn1 [EPZ015666]
global SDMA (PRMT5): did not detect a significant reduction of global SDMA

CC(=O)N1CCC(Nc2cc(C(=O)NC[C@H](O)CN3CCc4ccccc4C3)ncn2)CC1 [GSK3326595]
expression of cardiac stress markers Myh7 and Nppa (Myh7 and Nppa expression): stable expression of classical cardiac stress markers such as Myh7 and Nppa | cytotoxicity (HEK293 cells): significantly less cytotoxicity as compared to EPZ015666 | ejection fraction (murine heart [1]; oral once or twice a day, 5 consecutive days): did not detect changes in ejection fraction | death during the experiment (murine heart [1]; short-term application, 10 mg/kg): one animal (10 mg/kg) that died during the course of the experiment | adverse cardiovascular events in clinical studies (patients): manifested adverse cardiovascular events were not described | myocardial fibrosis (Masson Trichrome staining) (murine heart [2]): remained stable | half-life ([3]; both sexes, C57BL/6N, mouse, plasma): 2.5 h | bioavailability ([3]; both sexes, C57BL/6N, mouse, plasma, po): 5.7% | decline of plasma concentration on average ([3]; over a course of 12 h): > 90% | time of plasma peak concentration post application ([3]; single dose oral gavage or intravenous): 1 h | fibrotic remodeling (histology) (murine heart [4]): no significant fibrotic remodeling | hematology: anemia, lymphopenia (hematopoiesis [5]): significant anemia and lymphopenia | platelets counts (hematopoiesis [5]): unaltered | hematology: anemia, leucopenia (hematopoiesis [6]): significant normocytic normochromic anemia and leucopenia | platelets (hematopoiesis [6]): not affected | heart weight-to-tibia length and lung weight-to-tibia length (mice [7]): did not reveal PRMT5i-induced alterations | tolerability (body weight, mortality) (mice [7]): well tolerated as determined by stable body weight without treatment-associated mortality | heart targeted by % dosage on average ([8]; as worded): 19.0% | muscle tissue targeted by % dosage on average ([8]; as worded): 26.0% | heart targeted by % dosage on average (versus liver) ([8]; as worded in b7, first of 'respectively'): 26.0% | heart targeted by % dosage on average (versus kidney) ([8]; as worded in b7, second of 'respectively'): 19.0% | concentration at 1 h ([8]; both sexes, C57BL/6N, mouse, heart, read-out: absolute inhibitor concentration in heart): 82700 ng/g | Tmax ([8]; both sexes, C57BL/6N, mouse, liver, kidney, heart, skeletal muscle, other: oral (gavage) and intravenous (tail vein), both arms, single dose, read-out: time of maximum levels in liver, kidney, heart and skeletal muscle): 1 h | concentration at 1 h ([8]; both sexes, C57BL/6N, mouse, skeletal muscle, read-out: absolute inhibitor concentration in skeletal muscle): 172000 ng/g | tissue morphology / fibrotic remodeling (murine heart [9]): no immediate detrimental effects or fibrotic remodeling | mortality (mice [10]): delayed mortality starting 2 weeks post-surgery | longitudinal echocardiographic analysis (murine heart [11]): no statistical significance was found for any of the indicated time points in any group comparison | systolic cardiac function (murine heart [12]): preserved
